Data set [1] deals with COX-2 expression in PC3 cells. As to the kind of experiment: Immunofluorescence analysis of COX-2 expression in PC3 cells. It is filed as cell-based, Human. The following applies: TNF-α 20 ng/mL 2 h, then 1 μM test article 2 h.
Experimental: Human TNF-α (20 ng/mL) was then added to the cells and incubated for 2 h. […] The cells were then fixed with a 4% paraformaldehyde solution for 30 min at room temperature. […] The coverslips were washed 3 times with H2O and 3 times with PBS. […] After 5 washes with blocking buffer, the cells were mounted on microscope slides with mounting media (20 mM Tris of pH 8.0, 0.5% N-propyl gallate, and 70% glycerol). Images were collected with 500 ms exposure using DAPI and FITC filters. Relative fluorescence units (RFUs) were also analyzed by a plate reader at an excitation wavelength of 488 nm and an emission of 519 nm.
Data set [2] is described as follows: Aspirin release from Platin-A by RP-HPLC after sodium ascorbate reduction. It is filed as physicochemical. The settings on record: acetonitrile-water, HPLC 280 nm. On the procedure:
The remarkable anticancer activity of cisplatin is due to its inherent proficiency to bind with the N7 position of guanine bases leading to DNA damage. To mimic the intracellular reduction of Platin-A to cisplatin and activity of generated cisplatin with DNA, Platin-A was reduced with sodium ascorbate in the presence of 2′-deoxyguanosine 5′-monophosphate sodium salt hydrate (5′-GMP) as a truncated version of DNA, and the products were analyzed by matrix-assisted laser desorption/ionization (MALDI)-time of flight (TOF)-mass spectrometry (MS). […] Binding studies with 5′-GMP provided strong evidence that cisplatin released upon reduction of Platin-A will interact with nuclear DNA efficiently. The release of the other drug, aspirin from Platin-A was analyzed by HPLC (FIG. 8). […] As time progress, formation of increasing amounts of salicylic acid, the main metabolite of aspirin was detected (FIG. 8). This observation supported the release of aspirin moiety from Platin-A in its pristine form or its final metabolite form for COX inhibitory and anti-inflammatory activities, respectively.
The ability of Platin-A to release aspirin under reducing atmosphere was studied RP-HPLC. Reduction of Platin-A (2.97 mg, 2 mM) was carried out using sodium ascorbate (5.28 mg, 10 mM) in acetonitrile-water (1:2, 3 mL) and reduction product was examined by HPLC. […]

With `CC(=O)Oc1ccccc1C(=O)[O][Pt]([NH2])([NH2])([OH])([Cl])[Cl]` [Platin-A], the “COX-2 expression in TNF-α stimulated PC3 cells” value in data set [1] is “levels were reduced”. Besides, the “release of aspirin upon reduction” value in data set [2] was “initially produces aspirin upon reduction”.

The values are drawn from patent US20170190726A9, “PRODRUG FOR RELEASE OF CISPLATIN AND CYCLOOXYGENASE INHIBITOR” (priority 2013, published 2017).
